What was measured:
[1] = tested on: E.G7-OVA murine lymphoma cells; experiment: Tumor volume in immune cell profile study of established tumors (E.G7-OVA-e217 protocol); assay type: in vivo, C57BL/6 mice; conditions: at study end; INT-151 100 μg/animal 3 times a week; anti-CTLA-4 100 μg then 50 μg ×2; n=6; FIG. 6
Excerpt: (§1) In this study the immune cell profile in tumors and blood in lymphoma bearing mice was compared for a 3 times weekly dose of INT-151 and anti-CTLA-4 alone to the combination of 3 times weekly INT-151 plus anti-CTLA-4.
(§2) On day 17 after treatment began, when tumors reached a volume of 500-600 mm^3, mice were sacrificed and tumors and blood was collected for Fluorescent Activated Cell Sorting (FACS) analysis to determine the following immune cell types as listed in the table below:
(§3) Animals were to be monitored individually. Randomization into treatment groups was conducted when tumors reached an average of 43 mm^3 (n=6). Mice were euthanized after 17 days to collect tumors and blood for FACS analysis.

[2] = tested on: immune cell profile in peripheral blood; experiment: Immune profiles of peripheral blood by FACS analysis in lymphoma bearing mice; assay type: in vivo, C57BL/6 mice
Excerpt: as §1, §2, §3

[3] = tested on: E.G7-OVA murine lymphoma cells; experiment: Pilot dose response study, INT-151 once vs 3× weekly alone and with anti-CTLA-4 (E.G7-OVA-e215 protocol)
[4] = tested on: immune cell profile in tumors; experiment: Immune profiles of tumors by FACS analysis in lymphoma bearing mice; assay type: in vivo, C57BL/6 mice
Excerpt: as §1, §2, §3

[5] = tested on: E.G7-OVA murine lymphoma cells; experiment: E.G7-OVA syngeneic mouse lymphoma model, INT-151 with anti-CTLA-4 (E.G7-OVA-e214 protocol)
T cell = conditions: in the presence of tetanus toxoid or concanavalin A; Sinha 1988; cited from earlier work
[6] = INT-151 100 μg/animal 1× weekly (alone or with anti-CTLA-4 days 6, 9, 12), only animals with tumor take
[7] = INT-151 100 μg/animal 3× weekly (alone or with anti-CTLA-4), only animals with tumor take
[8] = INT-151 in combination with anti-CTLA-4

Q: With `N[C@@H](Cc1ccc(O)cc1)C(=O)NCC(=O)O` [INT-151, tyrosyl-glycine] as the compound, how does the Median tumor volumes [1] read?
A: 831.0 mm^3

Q: And the “CD4+ T cell population” value ([2]; compared to controls, FIG. 8)?
A: did not affect

Q: What about the “CD8+ T cell population” value ([2]; compared to controls, FIG. 8) of the same compound?
A: did not affect

Q: And the M1 macrophage population ([2]; compared to controls, FIG. 8)?
A: unchanged

Q: What about the M2 macrophage population ([2]; compared to controls, FIG. 8) of the same compound?
A: elevated

Q: What about the “Monocytic myeloid suppressor cells” value ([2]; compared to controls, FIG. 8) of the same compound?
A: not affected

Q: And the “granulocytic MDSCs” value ([2]; compared to controls, FIG. 8)?
A: reduced

Q: What about the “regulatory T cells” value ([2]; compared to controls, FIG. 8) of the same compound?
A: did not affect

Q: What about the total macrophage population ([2]; compared to controls, FIG. 8) of the same compound?
A: increased

Q: What about the “ratio of CD8+T/Treg” value ([2]; controls 8.4) of the same compound?
A: 6.4

Q: And the “% Alive on day 26” value [3, 6]?
A: 100%

Q: What about the “% Alive on day 29” value [3, 6] of the same compound?
A: 100%

Q: And the “% Alive on day 33” value [3, 6]?
A: 60%

Q: And the “% Alive on day 36” value [3, 6]?
A: 20%

Q: What about the “% Alive on day 43” value [3, 6] of the same compound?
A: 0%

Q: And the “% Alive on day 26” value [3, 7]?
A: 100%

Q: What about the “% Alive on day 29” value [3, 7] of the same compound?
A: 100%

Q: What about the “% Alive on day 33” value [3, 7] of the same compound?
A: 80%

Q: And the “% Alive on day 36” value [3, 7]?
A: 40%

Q: And the “% Alive on day 40” value [3, 7]?
A: 30%

Q: And the “% Alive on day 43” value [3, 7]?
A: 0%

Q: What about the “clinical improvement (median tumor volume and survival)” value ([3]; INT-151 3 times weekly, alone or with anti-CTLA-4, FIG. 5) of the same compound?
A: greater clinical improvement

Q: What about the “synergy with anti-CTLA-4 on survival” value [3, 8] of the same compound?
A: synergizes

Q: What about the tolerability ([3]; each treatment group) of the same compound?
A: well tolerated

Q: And the “CD4+T cells” value ([4]; compared to controls, FIG. 7)?
A: unchanged

Q: And the “CD8+ T cell population” value ([4]; compared to controls, FIG. 7)?
A: did not affect

Q: What about the M1 macrophage population ([4]; compared to controls, FIG. 7) of the same compound?
A: decreased

Q: What about the M2 macrophage population ([4]; compared to controls, FIG. 7) of the same compound?
A: increasing

Q: And the “granulocytic myeloid suppressor cells” value ([4]; compared to controls, FIG. 7)?
A: unchanged

Q: And the “regulatory T cells” value ([4]; compared to controls, FIG. 7)?
A: did not affect

Q: And the “ratio of CD8+T/Treg” value ([4]; control group 3.2)?
A: 2.5

Q: What about the “synergy with anti-CTLA-4 on survival” value [5, 8] of the same compound?
A: acts synergistically

Q: And the overall survival ([5]; compared to control, FIG. 3, FIG. 4)?
A: not INT-151, demonstrated improved overall survival

Q: What about the “body-weight (clinical improvement)” value ([5]; compared to untreated Group 1, FIG. 2) of the same compound?
A: slight positive clinical improvement

Q: What about the “median tumor volume growth / tumor size” value ([5]; compared to untreated Group 1, INT-151 100 μg/animal i.p. weekly from Day 6, anti-CTLA-4 Days 6, 9, 12, FIG. 1) of the same compound?
A: slight positive clinical improvement

Q: With tyr-gly-gly-phe-met [met-enkephalin] as the compound, how does the T cell proliferation (T cell) read?
A: elicit T cell proliferation

Q: Which T cell proliferation (T cell) does the source give for `CC(C)CC(NC(=O)C(Cc1ccccc1)NC(=O)CNC(=O)CNC(=O)C(N)Cc1ccc(O)cc1)C(=O)O` (stereo not shown) [leu-enkephalin, tyr-gly-gly-phe-leu] here?
A: elicit T cell proliferation
